Reference: patent publication US7473789B2, “9-(1′,5′-dimethyl-1′-vinyl -4′- hexenyl)-4-hydroxy-7H-furo[3,2-γ] [1] benzopyran-7-one as antibacterial agent” (Takasago International Corporation, priority 2004, dated 2009)
Values after ≈ are worked out from the molar mass of the structure shown. Read-outs that look alike come from different tables or passages of the source.

Experiments:
Assay type in all cases: cell-based
[1] = system: Corynebacterium xerosis JCM 1324; assay: MIC by Agar Dilution Test, Cx-2; settings: read-out: Minimum inhibitory concentration (MIC)
Protocol: (§1) Minimum inhibitory concentration (MIC) was determined by Agar Dilution Test (ADT).
(§2) Samples were dissolved in ethanol or water (according to solubility of each sample) to carry out two-fold serial dilution. A hundred μl of the resultant was added to a 10 ml sterilized agar medium (skin-related bacteria and standard bacteria in Mueller-Hinton Medium (Difco), yeast and filamentous bacteria in Sabroud Medium (Difco) and anaerobic bacteria in Trypticase Soy agar(BBL)), well agitated, transferred to a 9 cmf petri dish and immobilized at room temperature. To this petri dish, a 27-spot microplanter MIT-P from Sakuma Seisakusho, LTD. was used to spot 1×10^5 cfu (colony forming unit) of skin-related bacteria and standard bacteria, and the resultants were cultured at 37° C. for 18 hours. Yeast and filamentous bacteria were spotted for 5000 cfu (except Cg-1 was 50˜100 cfu) and cultured at 27° C. for 72 hours. Anaerobic bacteria were cultured at 37° C. for 72 hours under anaerobic conditions (using BBL gas pack anaerobic system). After completion of cultivation, growth of each bacterium was compared with that in a petri dish with alcohol alone (blank). A concentration of a sample without a bacterium growth was determined as the minimum inhibitory concentration (MIC).
(§3) As comparative substances, butylparaben (BPHB) and triclosan were determined as well.

[2] = system: Malassezia furfur IFO 0656; assay: MIC by Agar Dilution Test, Mf-1; settings: read-out: Minimum inhibitory concentration (MIC)
Protocol: as §1, §2, §3

[3] = system: Bacillus subtilis PCI 219 IFO 3134; assay: MIC by Agar Dilution Test, Bs-1; settings: read-out: Minimum inhibitory concentration (MIC)
Protocol: as §1, §2, §3

[4] = system: Actinomyces viscosus JCM 8352; assay: MIC by Agar Dilution Test, Av-1; settings: read-out: Minimum inhibitory concentration (MIC)
Protocol: as §1, §2, §3

[5] = system: Fusobacterium nucleatum JCM 6328; assay: MIC by Agar Dilution Test, Fn-1; settings: read-out: Minimum inhibitory concentration (MIC)
Protocol: as §1, §2, §3

[6] = system: Propionibacterium acnes ATCC 6919; assay: MIC by Agar Dilution Test, Pa-3; settings: Cutibacterium acnes, read-out: Minimum inhibitory concentration (MIC)
Protocol: as §1, §2, §3

[7] = system: Staphyrococcus aureus 209P IAM 12082; assay: MIC by Agar Dilution Test, Sa-3; settings: read-out: Minimum inhibitory concentration (MIC)
Protocol: as §1, §2, §3

[8] = system: Bacteroides fragilis GM 7000 JCM 5560; assay: MIC by Agar Dilution Test, Bf-1; settings: read-out: Minimum inhibitory concentration (MIC)
Protocol: as §1, §2, §3

[9] = system: Staphyrococcus epidermidis var. h-6 Takasago isolate; assay: MIC by Agar Dilution Test, Se-2; settings: read-out: Minimum inhibitory concentration (MIC)
Protocol: as §1, §2, §3

[10] = system: Staphyrococcus aureus ATCC 6538; assay: MIC by Agar Dilution Test, Sa-4; settings: read-out: Minimum inhibitory concentration (MIC)
Protocol: as §1, §2, §3

[11] = system: Staphyrococcus epidermidis ATCC 12228; assay: MIC by Agar Dilution Test, Se-3; settings: read-out: Minimum inhibitory concentration (MIC)
Protocol: as §1, §2, §3

[12] = system: Streptococcus mutans JCM 5175; assay: MIC by Agar Dilution Test, Su-1; settings: read-out: Minimum inhibitory concentration (MIC)
Protocol: as §1, §2, §3

[13] = system: Staphyrococcus epidermidis JCM 2414; assay: MIC by Agar Dilution Test, Se-1; settings: read-out: Minimum inhibitory concentration (MIC)
Protocol: as §1, §2, §3

[14] = system: Porphyromonas gingivalis JCM 8525; assay: MIC by Agar Dilution Test, Pg-1; settings: read-out: Minimum inhibitory concentration (MIC)
Protocol: as §1, §2, §3

[15] = system: Actinomyces naeslundii JCM 8350; assay: MIC by Agar Dilution Test, Aa-1; settings: read-out: Minimum inhibitory concentration (MIC)
Protocol: as §1, §2, §3

[16] = system: Corynebacterium minutissimum IFO 15361; assay: MIC by Agar Dilution Test, Cm-1; settings: read-out: Minimum inhibitory concentration (MIC)
Protocol: as §1, §2, §3

[17] = system: Propionibacterium acnes JCM 6473; assay: MIC by Agar Dilution Test, Pa-2; settings: Cutibacterium acnes, read-out: Minimum inhibitory concentration (MIC)
Protocol: as §1, §2, §3

[18] = system: Prevotella intermedia JCM 6322; assay: MIC by Agar Dilution Test, Pt-1; settings: read-out: Minimum inhibitory concentration (MIC)
Protocol: as §1, §2, §3

Which MIC ([1]; JCM1324, 18 h) does the source give for `CCCCOC(=O)c1ccc(O)cc1` [Butylparaben, butylparaben] here?
The MIC was 50 µg/mL (≈ 257 µM).

And the MIC ([2]; 72 h)?
The MIC was 100 µg/mL (≈ 515 µM).

What about the MIC ([3]; IFO3134, 18 h) of the same molecule?
The MIC was 200 µg/mL (≈ 1030 µM).

And the MIC ([4]; JCM8352, 72 h)?
The MIC was 100 µg/mL (≈ 515 µM).

What about the MIC ([5]; JCM6328, 72 h) of the same molecule?
The MIC was 100 µg/mL (≈ 515 µM).

What about the MIC ([6]; ATCC6919, 72 h) of the same molecule?
Its MIC is 100 µg/mL (≈ 515 µM).

And the MIC ([7]; 18 h)?
Its MIC is 100 µg/mL (≈ 515 µM).

What about the MIC ([8]; JCM5560, 72 h) of the same molecule?
Its MIC is 50 µg/mL (≈ 257 µM).

What about the MIC ([9]; 18 h) of the same molecule?
The MIC was 200 µg/mL (≈ 1030 µM).

And the MIC ([10]; 18 h)?
Its MIC is 200 µg/mL (≈ 1030 µM).

And the MIC ([11]; 18 h)?
Its MIC is 200 µg/mL (≈ 1030 µM).

And the MIC ([12]; JCM5175, 72 h)?
The MIC was 200 µg/mL (≈ 1030 µM).

What about the MIC ([13]; 18 h) of the same molecule?
Its MIC is 200 µg/mL (≈ 1030 µM).

What about the MIC ([14]; JCM8525, 72 h) of the same molecule?
Its MIC is 50 µg/mL (≈ 257 µM).

What about the MIC ([15]; JCM8350, 72 h) of the same molecule?
Its MIC is 100 µg/mL (≈ 515 µM).

And the MIC ([16]; IFO15361, 18 h)?
Its MIC is 200 µg/mL (≈ 1030 µM).

What about the MIC ([17]; JCM6473, 72 h) of the same molecule?
Its MIC is 100 µg/mL (≈ 515 µM).

And the MIC ([18]; JCM6322, 72 h)?
The MIC was 100 µg/mL (≈ 515 µM).

How did the MIC ([1]; JCM1324, 18 h) turn out when `Oc1cc(Cl)ccc1Oc1ccc(Cl)cc1Cl` [Triclosan] was run?
Its MIC is 3.1 µg/mL (≈ 10.7 µM).

What about the MIC ([2]; 72 h) of the same molecule?
Its MIC is 1.6 µg/mL (≈ 5.53 µM).

What about the MIC ([3]; IFO3134, 18 h) of the same molecule?
The MIC was 0.78 µg/mL (≈ 2.69 µM).

What about the MIC ([7]; 18 h) of the same molecule?
Its MIC is 1.6 µg/mL (≈ 5.53 µM).

And the MIC ([9]; 18 h)?
Its MIC is 1.6 µg/mL (≈ 5.53 µM).

What about the MIC ([10]; 18 h) of the same molecule?
Its MIC is 1.6 µg/mL (≈ 5.53 µM).

What about the MIC ([11]; 18 h) of the same molecule?
The MIC was 1.6 µg/mL (≈ 5.53 µM).

What about the MIC ([13]; 18 h) of the same molecule?
Its MIC is 1.6 µg/mL (≈ 5.53 µM).

What about the MIC ([16]; IFO15361, 18 h) of the same molecule?
The MIC was 1.6 µg/mL (≈ 5.53 µM).

Which MIC ([1]; JCM1324, Cx-2, Mueller-Hinton Medium, 1×10^5 cfu, 37° C. for 18 hours) does the source give for `C=CC(C)(CCC=C(C)C)c1c2occc2c(O)c2ccc(=O)oc12` (stereo not drawn) [9-(1′,5′-dimethyl-1′-vinyl-4′-hexenyl)-4-hydroxy-7H-furo[3,2-γ][1]benzopyran-7-one] here?
Its MIC is 3.1 µg/mL (≈ 9.16 µM).

And the MIC ([2]; Mf-1 (yeast), Sabroud Medium, 5000 cfu, 27° C. for 72 hours)?
The MIC was 3.1 µg/mL (≈ 9.16 µM).

What about the MIC ([3]; IFO3134, Bs-1, Mueller-Hinton Medium, 1×10^5 cfu, 37° C. for 18 hours) of the same molecule?
Its MIC is 3.1 µg/mL (≈ 9.16 µM).

What about the MIC ([4]; JCM8352, Av-1, Trypticase Soy agar, 37° C. for 72 hours, anaerobic conditions) of the same molecule?
The MIC was 3.1 µg/mL (≈ 9.16 µM).

And the MIC ([5]; JCM6328, Fn-1, Trypticase Soy agar, 37° C. for 72 hours, anaerobic conditions)?
The MIC was 1.6 µg/mL (≈ 4.73 µM).

What about the MIC ([6]; ATCC6919, Pa-3, Trypticase Soy agar, 37° C. for 72 hours, anaerobic conditions) of the same molecule?
The MIC was 3.1 µg/mL (≈ 9.16 µM).

What about the MIC ([7]; Sa-3, Mueller-Hinton Medium, 1×10^5 cfu, 37° C. for 18 hours) of the same molecule?
Its MIC is 3.1 µg/mL (≈ 9.16 µM).

And the MIC ([8]; JCM5560, Bf-1, Trypticase Soy agar, 37° C. for 72 hours, anaerobic conditions)?
The MIC was 1.6 µg/mL (≈ 4.73 µM).

What about the MIC ([9]; Se-2, Mueller-Hinton Medium, 1×10^5 cfu, 37° C. for 18 hours) of the same molecule?
The MIC was 3.1 µg/mL (≈ 9.16 µM).

And the MIC ([10]; Sa-4, Mueller-Hinton Medium, 1×10^5 cfu, 37° C. for 18 hours)?
The MIC was 3.1 µg/mL (≈ 9.16 µM).

What about the MIC ([11]; Se-3, Mueller-Hinton Medium, 1×10^5 cfu, 37° C. for 18 hours) of the same molecule?
Its MIC is 3.1 µg/mL (≈ 9.16 µM).

What about the MIC ([12]; JCM5175, Su-1, Trypticase Soy agar, 37° C. for 72 hours, anaerobic conditions) of the same molecule?
Its MIC is 6.3 µg/mL (≈ 18.6 µM).

What about the MIC ([13]; Se-1, Mueller-Hinton Medium, 1×10^5 cfu, 37° C. for 18 hours) of the same molecule?
Its MIC is 3.1 µg/mL (≈ 9.16 µM).

What about the MIC ([14]; JCM8525, Pg-1, Trypticase Soy agar, 37° C. for 72 hours, anaerobic conditions) of the same molecule?
The MIC was 1.6 µg/mL (≈ 4.73 µM).

What about the MIC ([15]; JCM8350, Aa-1, Trypticase Soy agar, 37° C. for 72 hours, anaerobic conditions) of the same molecule?
Its MIC is 3.1 µg/mL (≈ 9.16 µM).

What about the MIC ([16]; IFO15361, Cm-1, Mueller-Hinton Medium, 1×10^5 cfu, 37° C. for 18 hours) of the same molecule?
The MIC was 3.1 µg/mL (≈ 9.16 µM).

And the MIC ([17]; JCM6473, Pa-2, Trypticase Soy agar, 37° C. for 72 hours, anaerobic conditions)?
The MIC was 3.1 µg/mL (≈ 9.16 µM).

What about the MIC ([18]; JCM6322, Pt-1, Trypticase Soy agar, 37° C. for 72 hours, anaerobic conditions) of the same molecule?
Its MIC is 1.6 µg/mL (≈ 4.73 µM).
